According to US20150290105A1, “COMPOSITION COMPRISING SYRINGARESINOL FOR IMPROVING THE SKIN” (AMOREPACIFIC CORPORATION, priority 2011, published 2015):

Tests used:
Type in all cases: cell-based
[1] = system: interleukin 6 gene; experiment: Interleukin 6 gene expression in keratinocytes (Q-RT-PCR); details: 24 hours, relative to non-treated control
Method: Interleukin 6 (IL-6) is a cytokine secreted by keratinocytes, etc. Increased secretion owing to activation of the IL-6 gene leads to bright skin color and skin tone and suppressed skin pigmentation such as melasma or blemish. It was investigated whether syringaresinol can increase the expression of the IL-6 gene in skin keratinocytes.
Keratinocytes were treated with 10 ppm or 100 ppm syringaresinol. 24 hours later, the cells were recovered and washed twice with 10 mL of PBS. Then, total RNA was isolated from the cells using TRIzol reagent (Invitrogen, Carlsbad, Calif., USA). The isolated RNA was purified once more using the Qiagen RNeasy kit (Qiagen, Valencia, Calif.) and cDNA was synthesized therefrom using the Superscript Reverse Transcriptase (RT) II kit (Invitrogen, Carlsbad, Calif.). Subsequently, the change in the expression of the interleukin 6 gene was quantitatively analyzed by real-time reverse transcription polymerase chain reaction (Q-RT-PCR). The change in the gene expression pattern was evaluated using the TaqMan gene expression assay kit (Applied Biosystems, Forster City, Calif.). Hs00174360_ml was used as a primer. The expression level of interleukin 6 in the cells was analyzed by real-time PCR and was calculated relative to a non-treated control group.

[2] = system: SIRT1; experiment: SIRT1 expression promoting effect in human keratinocytes; details: HaCaT cells, 20, 50 or 100 μM, 24 hours, FIG. 3
Method: Human keratinocyte HaCaT cells or human fibroblast HDF cells were cultured under the condition of 37° C. and 5% CO2 in DMEM ((Gibco 1210-0038)) containing 10% fetal bovine serum.
The cultured cells were treated with syringaresinol dissolved in DMSO at a concentration of 20, 50 or 100 μM for 24 hours. Separately from this, the cells were treated with DMSO of 1/1000 of the volume of the culture medium as a negative control. After treating with the test substance, the cells were washed twice with cold PBS and RNA was extracted using TRIzol reagent (Invitrogen). Then, cDNA was synthesized using 1 μg/μL of the extracted RNA and a reverse transcription system (Promega). The expression pattern of the SIRT1 and GAPDH genes was monitored using the synthesized cDNA and predesigned primers and probes (Applied Biosystems; SIRT1, Hs01009006_ml; GAPDH, Hs99999905_ml). PCR reaction and analysis were carried out using the Rotor-Gene 3000 system (Corbett Research, Sydney, Australia). The result is shown in FIG. 3 (keratinocytes) and FIG. 4 (fibroblasts).

[3] = system: MMP-9; experiment: UV-induced MMP-9 expression in human keratinocytes (western blot); details: HaCaT cells, 50 μM, UVB 30 mJ/cm^2, FIG. 6
Method: (§1) Human keratinocyte HaCaT cells were cultured in substantially the same manner as in Test Example 10.
The cultured cells were treated with trypsin to obtain a single-cell suspension. Then, the cells were distributed in a 6-well plate, with 2×10^5 cells per well, and cultured for 24 hours. Subsequently, after replacing the medium with DMEM not containing fetal bovine serum and culturing again for 24 hours, the cells were treated with 50 μM syringaresinol dissolved in DMSO. After treating for 24 hours, the cells were washed with PBS and UVB of 30 mJ/cm^2 was irradiated in PBS. After discarding the PBS, the cells were added to a medium containing syringaresinol of the same concentration. As a control group, the cells were cultured in the same manner without treating with syringaresinol. […] Then, after centrifuging at 4° C. for 10 minutes with 15,000 g, the supernatant was recovered and protein was quantitated using Bio-Rad Protein Dye ReagentTM. […] Bands on the film were scanned with PowerLook 2100 XL (UMAX) and analyzed with the image-analyzing program ImageMaster 2D Elite (Amersham Bioscience).

[4] = system: involucrin; experiment: Involucrin expression promoting effect in human keratinocytes; details: HaCaT cells, FIG. 5
Method: as §1
cDNA was synthesized in substantially the same manner as in Test Example 10 and the expression pattern of the filaggrin, involucrin and GAPDH genes was monitored substantially the same manner as in Test Example 10 using the synthesized cDNA and predesigned primers and probes (Applied Biosystems; […]; GAPDH, Hs99999905_ml).

[5] = system: Melanocytes (Mel-Ab cells); experiment: Melanin production inhibiting effect in mouse melanocytes; details: Mel-Ab cells, 3 consecutive days; hydroquinone 10 ppm
Method: The melanin production inhibiting effect of the syringaresinol obtained in Example was evaluated using mouse melanocytes. First, melanocytes (Mel-Ab cells) derived from C57BL/6 (treated with Dooley et al.'s method) were cultured under the condition of 37° C. and 5% CO2 in Dulbecco's modified Eagle's medium (DMEM) containing 10% fetal bovine serum, 100 nM 12-O-tetradecanoylphorbol-13-acetate and 1 nM cholera toxin. […] After removing the culture medium and washing with PBS, the cells were dissolved with 1 N sodium hydroxide and absorbance was measured at 400 nm. Melanin production inhibiting rate (%) was calculated according to Equation 2 from the measured absorbance. Melanin production inhibiting rate (%)=100−(Absorbance of test substance) /(Absorbance of control substance)×100 [Equation 2]

Question: What does the source list for `COc1cc(C2OCC3C(c4cc(OC)c(O)c(OC)c4)OCC23)cc(OC)c1O` (stereo not drawn) [Syringaresinol, syringaresinol]?
Answer: Expression of IL-6 gene ([1]; 10 ppm): 3.5; Expression of IL-6 gene ([1]; 100 ppm): 8.2; Increase of SIRT1 expression [2]: ≥ 4 times; UV-induced MMP-9 expression [3]: inhibiting the UV-induced increase of MMP-9 expression; Expression of involucrin [4]: increases the expression; Melanin production inhibiting rate (%) [5]: 85.7%
